Measured values published in US11707442B2, “Antibacterial and antifungal compounds” (The General Hospital Corporation, priority 2015, dated 2023).
In brackets after ≈: the same amount, converted by molar mass. Read-outs that look alike come from different tables or passages of the source.

Key:
K. pneumonia WGLW2 = experiment: MIC, broth microdilution; format: cell-based, Klebsiella pneumoniae; settings: Klebsiella pneumoniae; K. pneumonia WGLW2; read-out: Minimum inhibitory concentration
From the text: (§1) Bacterial strains and growth conditions and persister isolation: methicillin-resistant S. aureus (MRSA) strain MW2 BAA-1707, vancomycin-resistant S. aureus strain VRS 1, 11 clinical S. aureus isolates, 8 clinical Enterococcus faecium isolates, Klebsiella pneumoniae WGLW2 (BEI Resources, Manassas, Va., USA), Acinetobacter baumannii ATCC 17978, Pseudomonas aeruginosa PA14, and Enterobacter aerogenes ATCC 13048 were used to test antimicrobial activity (See Table 1a). S. aureus and E. faecium strains were grown in tryptic soy broth (TSB) (BD, Franklin Lakes, N.J., USA) or brain-heart infusion (BHI) broth (BD, Franklin Lakes, N.J., USA), respectively at 37° C. at 225 rpm. K. pneumoniae, A. baumannii, P. aeruginosa, and E. aerogenes were grown in Luria Bertani (LB) broth (BD, Franklin Lakes, N.J., USA).
(§2) To test the bacterial MICs for compounds described herein, the total volume in each well was 100 μl of test compounds and bacterial cells in MH broth. […] The bacterial concentration was adjusted to an initial OD600 of 0.03. After incubation at 35° C. for 18 hrs, the absorbance was measured at 595 nm in accordance with CLSI document M07-A8. The MICs of antibiotics were determined by the standard microdilution method recommended by the Clinical and Laboratory Standards Institute.

S. aureus = experiment: Minimal inhibitory concentration (MIC), broth microdilution; format: cell-based, Staphylococcus aureus; settings: Staphylococcus aureus
From the text: as §1, §2

E. faecium = experiment: MIC, broth microdilution; format: cell-based, Enterococcus faecium; settings: Enterococcus faecium
From the text: as §1, §2

A. baumannii = experiment: MIC, broth microdilution; format: cell-based, Acinetobacter baumannii; settings: Acinetobacter baumannii, ATCC17978; A. baumannii ATCC 17978; read-out: Minimum inhibitory concentration
From the text: as §1, §2

E. aerogenes ATCC 13048 = experiment: MIC, broth microdilution; format: cell-based, Enterobacter aerogenes; settings: Klebsiella aerogenes, ATCC13048; E. aerogenes ATCC 13048; read-out: Minimum inhibitory concentration
From the text: as §1, §2

P. aeruginosa = experiment: MIC, broth microdilution; format: cell-based, Pseudomonas aeruginosa; settings: Pseudomonas aeruginosa; P. aeruginosa PA14; read-out: Minimum inhibitory concentration
From the text: as §1, §2

**Q.** How did the MIC (K. pneumonia WGLW2) turn out when `Cc1onc(-c2ccccc2)c1C(=O)N[C@@H]1C(=O)N2[C@@H]1SC(C)(C)[C@@H]2C(=O)O` [Oxacillin] was run?
**A.** The MIC was over 64 µg/mL.

**Q.** And the MIC (S. aureus; S. aureus BF1, read-out: Minimum inhibitory concentration)?
**A.** Its MIC is over 64 µg/mL.

**Q.** What about the MIC (S. aureus; S. aureus BF2, read-out: Minimum inhibitory concentration) of the same compound?
**A.** Its MIC is over 64 µg/mL.

**Q.** And the MIC (S. aureus; S. aureus BF3, read-out: Minimum inhibitory concentration)?
**A.** The MIC was 32 µg/mL (≈ 79.7 µM).

**Q.** What about the MIC (S. aureus; S. aureus BF4, read-out: Minimum inhibitory concentration) of the same compound?
**A.** Its MIC is 16 µg/mL (≈ 39.9 µM).

**Q.** And the MIC (S. aureus; S. aureus BF5, read-out: Minimum inhibitory concentration)?
**A.** Its MIC is over 64 µg/mL.

**Q.** What about the MIC (S. aureus; S. aureus BF6, read-out: Minimum inhibitory concentration) of the same compound?
**A.** Its MIC is 1 µg/mL (≈ 2.49 µM).

**Q.** And the MIC (S. aureus; S. aureus BF7, read-out: Minimum inhibitory concentration)?
**A.** The MIC was over 64 µg/mL.

**Q.** And the MIC (S. aureus; S. aureus BF8, read-out: Minimum inhibitory concentration)?
**A.** The MIC was over 64 µg/mL.

**Q.** And the MIC (S. aureus; S. aureus BF9, read-out: Minimum inhibitory concentration)?
**A.** The MIC was 0.25 µg/mL (≈ 0.623 µM).

**Q.** What about the MIC (S. aureus; S. aureus BF10, read-out: Minimum inhibitory concentration) of the same compound?
**A.** Its MIC is over 64 µg/mL.

**Q.** And the MIC (S. aureus; S. aureus BF11, read-out: Minimum inhibitory concentration)?
**A.** Its MIC is over 64 µg/mL.

**Q.** What about the MIC (S. aureus; S. aureus MW2, read-out: Minimum inhibitory concentration) of the same compound?
**A.** The MIC was 64 µg/mL (≈ 159 µM).

**Q.** What about the MIC (S. aureus; S. aureus VRS1, read-out: Minimum inhibitory concentration) of the same compound?
**A.** Its MIC is over 64 µg/mL.

**Q.** What about the MIC (S. aureus; Staphylococcus aureus clinical isolate BF1 (Table 5), read-out: Drug MIC) of the same compound?
**A.** The MIC was over 64 µg/mL.

**Q.** What about the MIC (S. aureus; Staphylococcus aureus clinical isolate BF2 (Table 5), read-out: Drug MIC) of the same compound?
**A.** The MIC was over 64 µg/mL.

**Q.** And the MIC (S. aureus; Staphylococcus aureus clinical isolate BF3 (Table 5), read-out: Drug MIC)?
**A.** The MIC was 32 µg/mL (≈ 79.7 µM).

**Q.** And the MIC (S. aureus; Staphylococcus aureus clinical isolate BF4 (Table 5), read-out: Drug MIC)?
**A.** Its MIC is 16 µg/mL (≈ 39.9 µM).

**Q.** What about the MIC (S. aureus; Staphylococcus aureus clinical isolate BF5 (Table 5), read-out: Drug MIC) of the same compound?
**A.** The MIC was over 64 µg/mL.

**Q.** What about the MIC (S. aureus; Staphylococcus aureus clinical isolate BF6 (Table 5), read-out: Drug MIC) of the same compound?
**A.** Its MIC is 1 µg/mL (≈ 2.49 µM).

**Q.** And the MIC (S. aureus; Staphylococcus aureus clinical isolate BF7 (Table 5), read-out: Drug MIC)?
**A.** The MIC was over 64 µg/mL.

**Q.** What about the MIC (S. aureus; Staphylococcus aureus clinical isolate BF8 (Table 5), read-out: Drug MIC) of the same compound?
**A.** The MIC was over 64 µg/mL.

**Q.** And the MIC (S. aureus; Staphylococcus aureus clinical isolate BF9 (Table 5), read-out: Drug MIC)?
**A.** The MIC was 0.25 µg/mL (≈ 0.623 µM).

**Q.** And the MIC (S. aureus; Staphylococcus aureus clinical isolate BF10 (Table 5), read-out: Drug MIC)?
**A.** Its MIC is over 64 µg/mL.

**Q.** And the MIC (S. aureus; Staphylococcus aureus clinical isolate BF11 (Table 5), read-out: Drug MIC)?
**A.** The MIC was over 64 µg/mL.

**Q.** What about the MIC (E. faecium; E. faecium C68, read-out: Minimum inhibitory concentration) of the same compound?
**A.** The MIC was over 64 µg/mL.

**Q.** And the MIC (E. faecium; E. faecium D14, read-out: Minimum inhibitory concentration)?
**A.** The MIC was over 64 µg/mL.

**Q.** What about the MIC (E. faecium; E. faecium D24, read-out: Minimum inhibitory concentration) of the same compound?
**A.** The MIC was over 64 µg/mL.

**Q.** And the MIC (E. faecium; E. faecium D25, read-out: Minimum inhibitory concentration)?
**A.** Its MIC is over 64 µg/mL.

**Q.** What about the MIC (E. faecium; E. faecium D29, read-out: Minimum inhibitory concentration) of the same compound?
**A.** The MIC was over 64 µg/mL.

**Q.** What about the MIC (E. faecium; E. faecium E007, read-out: Minimum inhibitory concentration) of the same compound?
**A.** Its MIC is over 64 µg/mL.

**Q.** And the MIC (E. faecium; E. faecium WB213, read-out: Minimum inhibitory concentration)?
**A.** The MIC was over 64 µg/mL.

**Q.** And the MIC (E. faecium; E. faecium WC176, read-out: Minimum inhibitory concentration)?
**A.** The MIC was over 64 µg/mL.

**Q.** And the MIC (E. faecium; Enterococcus faecium clinical isolate C68 (Table 6), read-out: Drug MIC)?
**A.** The MIC was over 64 µg/mL.

**Q.** And the MIC (E. faecium; Enterococcus faecium clinical isolate D14 (Table 6), read-out: Drug MIC)?
**A.** The MIC was 2 µg/mL (≈ 4.98 µM).

**Q.** And the MIC (E. faecium; Enterococcus faecium clinical isolate D24 (Table 6), read-out: Drug MIC)?
**A.** Its MIC is 1 µg/mL (≈ 2.49 µM).

**Q.** And the MIC (E. faecium; Enterococcus faecium clinical isolate D25 (Table 6), read-out: Drug MIC)?
**A.** Its MIC is 1 µg/mL (≈ 2.49 µM).

**Q.** And the MIC (E. faecium; Enterococcus faecium clinical isolate D29 (Table 6), read-out: Drug MIC)?
**A.** Its MIC is 2 µg/mL (≈ 4.98 µM).

**Q.** What about the MIC (E. faecium; Enterococcus faecium clinical isolate W312 (Table 6), read-out: Drug MIC) of the same compound?
**A.** The MIC was over 64 µg/mL.

**Q.** And the MIC (E. faecium; Enterococcus faecium clinical isolate WC176 (Table 6), read-out: Drug MIC)?
**A.** The MIC was over 64 µg/mL.

**Q.** And the MIC (A. baumannii)?
**A.** The MIC was over 64 µg/mL.

**Q.** And the MIC (E. aerogenes ATCC 13048)?
**A.** The MIC was over 64 µg/mL.

**Q.** And the MIC (P. aeruginosa)?
**A.** The MIC was over 64 µg/mL.
